Where two headings read alike, the source gives them in different places.

The target in one assay is WT KRAS (Homo sapiens, UniProt P01116). As to the kind of experiment: KRAS WT Probe Displacement Assay (TR-FRET, GDP-loaded). Format: binding. The text has this: (§1) The synthetic routes of probe 1 and 2, which have been disclosed in PCT/CN2022/070676, are hereby incorporated herein.
For orientation: In TR-FRET formats the signal depends on donor and acceptor labels being close together.

Another assay addresses KRAS G12D (Homo sapiens, UniProt P01116, G12D). As to the kind of experiment: KRAS G12D Probe Displacement Assay (TR-FRET, GDP-loaded). Format: binding.
Text: as §1

The mark [1] stands for this setting: KRAS WT, read-out: KRAS^WT Probe Displacement Assay IC50.
The mark [2] stands for this setting: KRAS G12D, read-out: KRAS^G12D Probe Displacement Assay IC50.
The mark [3] stands for this setting: KRAS^WT Probe Displacement Assay IC50, KRAS WT.
The mark [4] stands for this setting: KRAS^G12D Probe Displacement Assay IC50, KRAS G12D.

Chain of WT KRAS (P01116 1-188 isoform P01116-2): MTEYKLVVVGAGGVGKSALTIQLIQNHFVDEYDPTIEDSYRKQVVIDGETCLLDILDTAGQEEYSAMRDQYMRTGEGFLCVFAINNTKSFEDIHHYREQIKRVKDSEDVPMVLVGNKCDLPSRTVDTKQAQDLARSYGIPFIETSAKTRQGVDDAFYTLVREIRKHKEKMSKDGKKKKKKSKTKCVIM
Chain of KRAS G12D (P01116 1-188 isoform P01116-2 G12D): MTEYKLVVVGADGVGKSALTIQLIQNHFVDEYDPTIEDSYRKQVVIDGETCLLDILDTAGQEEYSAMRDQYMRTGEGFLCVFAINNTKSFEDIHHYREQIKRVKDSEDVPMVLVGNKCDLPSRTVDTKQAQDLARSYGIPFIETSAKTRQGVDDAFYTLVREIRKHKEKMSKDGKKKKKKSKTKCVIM

The term IC50 denotes the concentration at which inhibition is half-maximal. On to `Cc1cc(N)cc(-c2nc3c4c(nc(OCC5(CN6CC(O)(C(F)(F)F)C6)CC5)nc4c2F)N2C[C@H]4CC[C@H](N4)[C@H]2CCO3)c1C(F)(F)F` [Example 80, 1-((1-((((6aR,7S,10R)-2-(5-amino-3-methyl-2-(trifluoromethyl)phenyl)-1-fluoro-5,6,6a,7,8,9,10,11-octahydro-4-oxa-3,11a,12,14,15-pentaaza-7,10-methanocyclohepta[4,5]cycloocta [1,2,3-de]naphthalen-13-yl)oxy)methyl)cyclopropyl)methyl)-3-(trifluoromethyl) azetidin-3-ol], for which the IC50 at WT KRAS (setting [1]) is 3 to 1000 nM; on KRAS G12D (setting [2]), less than 0.3 nM.

Take `Cc1cc(N)cc(-c2nc3c4c(nc(OCC5(CN6CC=CCC6)CC5)nc4c2F)N2C[C@H]4CC[C@H](N4)[C@H]2CCO3)c1C(F)(F)F` [Example 112, 3-((6aR,7S,10R)-13-((1-((3,6-dihydropyridin-1(2H)-yl)methyl)cyclopropyl)methoxy)-1-fluoro-5,6,6a, 7,8,9,10,11-octahydro-4-oxa-3,11a,12,14,15-pentaaza-7,10-methanocyclohepta [4,5]cycloocta [1,2,3-de]naphthalen-2-yl)-5-methyl-4-(trifluoromethyl) aniline]: the results for the IC50 on WT KRAS (setting [3]) and on KRAS G12D (setting [4]) were 3 to 1000 nM and less than 0.3 nM, respectively.

On to `Cc1cc(N)cc(-c2nc3c4c(nc(OCC5(CN6CC=C(F)CC6)CC5)nc4c2F)N2C[C@H]4CC[C@H](N4)[C@H]2CCO3)c1C(F)(F)F` [Example 178, 3-((6aR,7S,10R)-1-fluoro-13-((1-((4-fluoro-3,6-dihydropyridin-1(2H)-yl)methyl)cyclopropyl)methoxy)-5,6,6a,7,8,9,10,11-octahydro-4-oxa-3,11a,12,14,15-pentaaza-7,10-methanocyclohepta[4,5]cycloocta[1,2,3-de]naphthalen-2-yl)-5-methyl-4-(trifluoromethyl)aniline], for which the half-inhibitory concentration (IC50) is 3 to 1000 nM at WT KRAS (setting [1]) and less than 0.3 nM on KRAS G12D (setting [2]).

For the molecule `Cc1cc(N)cc(-c2nc3c4c(nc(OCC5(CN(C)C)CC5F)nc4c2F)N2C[C@H]4CC[C@H](N4)[C@H]2CCO3)c1C(F)(F)F` (single isomer, unassigned) [Example 136], the IC50 at WT KRAS (setting [3]) was 3 to 1000 nM; on KRAS G12D (setting [4]) it was less than 0.3 nM.

Source of the values: US20260347373A1, “HETEROCYCLIC COMPOUNDS, COMPOSITIONS THEREOF, AND METHODS OF TREATMENT THEREWITH” (BeOne Medicines I GmbH, priority 2023, published 2026).
